The target of this test is T1, LPA2 receptor (LPA2R) (Homo sapiens, UniProt Q9HBW0).
T1 construct: expressed in transfected cells; host or cells: U2OS
Put plainly: LPA2R-Calciumflux assay (intracellular calcium mobilisation, FLIPR). It is filed as cell-based. The note with it: U2OS cells recombinant expressing LPA2R; inhibition of LPA-induced Ca-flux; 10 concentrations 30 uM to 1 nM, 1% DMSO. (In general: Calcium flux is commonly read through the fluorescence of an indicator in the cells.)

Where only a bound is given, the exact number is not on record here.

T1 sequence (Q9HBW0 whole entry): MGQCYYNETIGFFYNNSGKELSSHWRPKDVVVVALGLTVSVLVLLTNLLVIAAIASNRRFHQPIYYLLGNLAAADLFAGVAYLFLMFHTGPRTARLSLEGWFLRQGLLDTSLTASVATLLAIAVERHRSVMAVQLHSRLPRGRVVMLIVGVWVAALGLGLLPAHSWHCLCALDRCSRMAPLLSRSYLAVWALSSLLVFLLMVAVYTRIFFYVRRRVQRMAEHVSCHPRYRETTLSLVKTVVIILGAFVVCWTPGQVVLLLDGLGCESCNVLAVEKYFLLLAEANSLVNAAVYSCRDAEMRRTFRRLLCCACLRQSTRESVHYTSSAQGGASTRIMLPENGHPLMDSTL

The IC50 is the concentration that inhibits the measured activity by half. Consider `Fc1ccc(CN2CCCC[C@@H]2c2cc3ccccc3[nH]2)cc1` [compound 125, 2-[(R)-1-(4-Fluoro-benzyl)-piperidin-2-yl]-1H-indole], for which the IC50 is below 500 nM.

In the case of `Cc1cc2nc(C3CCCCN3Cc3cccc(C(F)(F)F)c3)[nH]c2cc1Cl` (centres unmarked) [compound 126], the half-maximal inhibitory concentration (IC50) was below 500 nM.

In the case of `Cc1cc2nc(C3CCCCN3Cc3ccc(C)c(C(F)(F)F)c3)[nH]c2cc1Cl` (centres unmarked) [compound 127], the IC50 fell in the range of 500 to 5000 nM.

Consider `Cc1ccc(CN2CCCCC2c2nc3cc(Cl)cnc3[nH]2)cc1C` (centres unmarked) [compound 128, 6-Chloro-2-[1-(3,4-dimethyl-benzyl)-piperidin-2-yl]-3H-imidazo[4,5-b]pyridine], for which the IC50 is below 500 nM.

With `Cc1cccc(CN2CCCCC2c2nc3ccc(S(N)(=O)=O)cc3[nH]2)c1` (centres unmarked) [compound 129, 2-[1-(3-Methyl-benzyl)-piperidin-2-yl]-3H-benzo-imidazole-5-sulfonic acid amide], the IC50 is below 500 nM.

As to `Fc1ccc(CN2CCCCC2c2nc3cccnc3[nH]2)cc1` (centres unmarked) [compound 130, 2-[1-(4-Fluoro-benzyl)-piperidin-2-yl]-3H-imidazo[4,5-b]pyridine], the 50% inhibitory concentration (IC50) was below 500 nM.

Regarding `Fc1ccc(CN2CCCC[C@H]2c2nc3cc(F)ccc3[nH]2)cc1` [compound 131, 5-Fluoro-2-[(S)-1-(4-fluoro-benzyl)-piperidin-2-yl]-1H-benzo-imidazole], the half-maximal inhibitory concentration (IC50) fell in the range of 500 to 5000 nM.

As to `Fc1ccc(CCCN2CCCCC2c2cc3cc(F)ccc3[nH]2)cc1` (centres unmarked) [compound 132, 5-Fluoro-2-{1-[3-(4-fluoro-phenyl)-propyl)-piperidin-2-yl}-1H-indole], the IC50 was 5000 to 15000 nM.

Consider `Fc1ccc(CN2CCCCC2c2nc3nccnc3[nH]2)cc1` (centres unmarked) [compound 133, 2-[1-(4-Fluoro-benzyl)-piperidin-2-yl]-1H-imidazo[4,5-b]pyrazine], for which the IC50 lay in the range of 5000 to 15000 nM.

Take `Cc1ccc(CN2CCCCC2c2nc3nccnc3[nH]2)cc1C` (centres unmarked) [compound 134, 2-[1-(3,4-Dimethyl-benzyl)-piperidin-2-yl]-1H-imidazo[4,5-b]pyrazine]: the IC50 was below 500 nM.

`Cc1ccc(CN2CCC3C[C@]32c2nc3cc(F)ccc3[nH]2)cc1C` (stereo partly drawn) [compound 135, 2-[(R)-2-(3,4-Dimethyl-benzyl)-2-aza-bicyclo-[3.1.0]hex-1-yl]-5-fluoro-1H-benzo-imidazole]: the IC50 fell in the range of 5000 to 15000 nM.

`Fc1ccc(CN2CCCC[C@@H]2c2cc3cc(F)ccc3[nH]2)cc1` [compound 136, 5-Fluoro-2-[(R)-1-(4-fluoro-benzyl)-piperidin-2-yl]-1H-indole]: the half-inhibitory concentration (IC50) is below 500 nM.

Take `Fc1ccc(CN2CCCC[C@H]2c2cc3cc(F)ccc3[nH]2)cc1` [compound 137, 5-Fluoro-2-[(S)-1-(4-fluoro-benzyl)-piperidin-2-yl]-1H-indole]: the IC50 fell in the range of 500 to 5000 nM.

Take `Cc1ccc(CN2CCCC[C@@H]2c2cc3cc(F)ccc3[nH]2)cc1C` [compound 138, 2-[(R)-1-(3,4-Dimethyl-benzyl)-piperidin-2-yl]-5-fluoro-1H-indole]: the IC50 is below 500 nM.

Consider `Cc1ccc(CN2CCCC[C@H]2c2cc3cc(F)ccc3[nH]2)cc1C` [compound 139, 2-[(S)-1-(3,4-Dimethyl-benzyl)-piperidin-2-yl]-5-fluoro-1H-indole], for which the 50% inhibitory concentration (IC50) lay within 500 to 5000 nM.

For the compound `Cc1ccc(CN2CCCC[C@@H]2c2nc3cc(Cl)cnc3[nH]2)cc1C` [compound 140, 6-Chloro-2-[(R)-1-(3,4-dimethyl-benzyl)-piperidin-2-yl]-3H-imidazo[4,5-b]pyridine], the IC50 lay within 500 to 5000 nM.

In the case of `Cc1ccc(CN2CCCC[C@H]2c2nc3cc(Cl)cnc3[nH]2)cc1C` [compound 141, 6-Chloro-2-[(S)-1-(3,4-dimethyl-benzyl)-piperidin-2-yl]-3H-imidazo[4,5-b]pyridine], the IC50 fell in the range of 500 to 5000 nM.

For the compound `Cc1ccc(CN2CCCC[C@H]2c2nc3cc(F)ccc3[nH]2)cc1C` [compound 142, 2-[(S)-1-(3,4-Dimethyl-benzyl)-piperidin-2-yl]-5-fluoro-1H-benzo-imidazole], the half-maximal inhibitory concentration (IC50) was below 500 nM.

As to `Cc1ccc(CN2CCCC[C@@H]2c2cc3ccccc3[nH]2)cc1` [compound 143, 2-[(R)-1-(4-Methyl-benzyl)-piperidin-2-yl)-1H-indole], the IC50 was below 500 nM.

Regarding `Fc1ccc(CN2CCCCC2c2cc3cccnc3[nH]2)cc1` (centres unmarked) [compound 144, 2-[1-(4-Fluoro-benzyl)-piperidin-2-yl]-1H-pyrrolo[2,3-b]pyridine], the IC50 was in the range of 500 to 5000 nM.
